Experimental data published in US9127079B2, “Inhibitors of phosphatase and tensin homolog (PTEN) conjugates” (THE UNIVERSITY OF BRITISH COLUMBIA, priority 2009, dated 2015).

Columns and labels:
Format in all cases: cell-based, rat
nuclear PIP3 = test: Level of nuclear PIP3 after NMDA treatment
Method: (§1) Dissociated cultures of rat cortical or hippocampal neurons were prepared from 18-d-old Sprague Dawley rat embryos as described previously (Mielke and Wang 2005). To obtain mixed cultures enriched with neurons, uridine (10 μM) and 5-Fluor-T-deoxyuridine (10 μM) were added to the culture medium at 3 d in vitro (DIV) and maintained for 48 h to inhibit non-neuronal cell proliferation before the cultures were returned to the normal culture medium. Mature neurons (12-14 DIV) were used for experiments.
(§2) In order to induce excitotoxicity, 12-14 DIV cultured neurons were washed and transferred to Mg2+-free extracellular solution (ECS) containing the following (in mM): 25 HEPES acid, 140 NaCl, 33 glucose, 5.4 KCl, and 1.3 CaCl2, with pH 7.35 and osmolarity 320-330 mOsm. ECS and subjected to NMDA-induced excitotoxicity (20 μM NMDA, 10 μM glycine, 60 min at room temperature) or any other experimental conditions as indicated in the texts. Cells were then washed twice with normal ECS, and returned to the original growth conditions until additional assay.
Nuclear extracts were isolated from control and NMDA-treated cell cultures (10^8 cells) using the Panomics™ nuclear extraction kit (Panomics™; catalog number AY2002) as recommended by the manufacturer.

[1] = tested on: cultured hippocampal neurons; test: Neuronal death by nuclei staining (Hoechst 33342), NMDA excitotoxicity; settings: NMDA 20 uM, 1 hour
Method: (§3) Dissociated cultures of rat cortical or hippocampal neurons were prepared from 18-d-old Sprague Dawley rat embryos as described previously (Mielke and Wang 2005). To obtain mixed cultures enriched with neurons, uridine (10 μM) and 5-Fluor-T-deoxyuridine (10 μM) were added to the culture medium at 3 d in vitro (DIV) and maintained for 48 h to inhibit non-neuronal cell proliferation before the cultures were returned to the normal culture medium. Mature neurons (12-14 DIV) were used for experiments. […]
(§4) Necrotic neuronal death was quantified by measuring lactate dehydrogenase (LDH) release 20 h after treatments using a Cyto Tox™ 96 assay kit (Promega™, Madison, Wis.). Absorbance readings were measured using a spectrophotometric microplate reader. Apoptotic neuronal death was determined by visualizing the nucleus condensation and fragmentation of neurons stained with Hoechst-33342™. Images were taken with a Leica DMIRE2™ fluorescence microscope. […] These observations were quantified by double-blind counting of apoptotic and total neurons in each visual field and expressed as percentage apoptosis. […] Data are expressed as the difference in apoptosis relative to control and are expressed as a percentage.

[2] = tested on: cultured hippocampal neurons; test: Neuronal death by LDH assay, NMDA excitotoxicity; settings: NMDA 20 uM, 1 hour
Method: as §3, §4

PTEN [3] = test: Immunostaining of endogenous PTEN: nuclear translocation in cultured neurons with NMDA; settings: peptide 10 uM, NMDA stimulation
Method: as §1, §2

PTEN [4] = test: Western blotting of nuclear fractions from cultured neurons: PTEN nuclear translocation; settings: NMDA stimulation
Method: as §1
In order to induce excitotoxicity, 12-14 DIV cultured neurons were washed and transferred to Mg2+-free extracellular solution (ECS) containing the following (in mM): 25 HEPES acid, 140 NaCl, 33 glucose, 5.4 KCl, and 1.3 CaCl2, with pH 7.35 and osmolarity 320-330 mOsm. […]
For western blotting, 10 μg of the nuclear extract or 40 μg of total cell lysate (solubilized by 1% SDS, 1 mM EGTA, 1 mM EDTA, 1 mM DTT, 2 mM sodium orthovanadate, and protease inhibitors cocktail in PBS) from each treatment condition was separated with SDS-PAGE, transferred onto a polyvinylidene difluoride (PVDF) membrane, and probed with the relevant antibodies. […] Band intensities were quantified using NIH ImageJ™ software and normalized to the quantity of a nuclear marker or β-tubulin in each sample lane.

CN[C@H](CC(=O)O)C(=O)O [NMDA, N-methyl-D-asparate]
level of nuclear PIP3 (nuclear PIP3): reduced the level of nuclear PIP3
cell death, nuclei staining [1]: significant cell death
cell death, LDH assay [2]: significant cell death

YGRKKRRQRRR-PEETSEKVENGS (YGRKKRRQRRRPEETSEKVENGS; PTEN K289 interference peptide conjugated to TAT protein transduction domain) [Peptide-K289, TAT protein transduction domain fused to PTEN K289 interference peptide; control for Peptide-K13]
PTEN nuclear translocation (endogenous PTEN immunostaining) (PTEN [3]): failed to do so
PTEN nuclear translocation (western blotting of nuclear fractions) (PTEN [4]): failed to do so
